Test results reported in the supplement of paper PMC13380429.

Experiments:
Settings in all cases: 72 h
U2OS [1] = assay: relative viability EC50 (midpoint between 100% and the lowest measured viability); higher = less toxic
Calu-3 [2] = assay: as above
HepG2 [3] = assay: as above
Caco-2 [4] = assay: as above
Vero E6 [5] = assay: as above
U2OS [6] = assay: cell viability relative to DMSO; higher = less toxic
Calu-3 [7] = assay: as above
HepG2 [8] = assay: as above
Caco-2 [9] = assay: as above
Vero E6 [10] = assay: as above
U2OS [11] = assay: drug sensitivity score (DSS) for viability; higher = more toxic; extreme values may be limits of the assay
Calu-3 [12] = assay: as above
HepG2 [13] = assay: as above
Caco-2 [14] = assay: as above
Vero E6 [15] = assay: as above

Compound | relative viability EC50 (U2OS [1]) [µM] | relative viability EC50 (Calu-3 [2]) [µM] | relative viability EC50 (HepG2 [3]) [µM] | relative viability EC50 (Caco-2 [4]) [µM] | relative viability EC50 (Vero E6 [5]) [µM] | cell viability (U2OS [6]; 1 nM) [%] | cell viability (U2OS [6]; 10 nM) [%] | cell viability (U2OS [6]; 100 nM) [%] | cell viability (U2OS [6]; 1000 nM) [%] | cell viability (U2OS [6]; 10000 nM) [%] | cell viability (Calu-3 [7]; 1 nM) [%] | cell viability (Calu-3 [7]; 10 nM) [%] | cell viability (Calu-3 [7]; 100 nM) [%] | cell viability (Calu-3 [7]; 1000 nM) [%] | cell viability (Calu-3 [7]; 10000 nM) [%] | cell viability (HepG2 [8]; 1 nM) [%] | cell viability (HepG2 [8]; 10 nM) [%] | cell viability (HepG2 [8]; 100 nM) [%] | cell viability (HepG2 [8]; 1000 nM) [%] | cell viability (HepG2 [8]; 10000 nM) [%] | cell viability (Caco-2 [9]; 1 nM) [%] | cell viability (Caco-2 [9]; 10 nM) [%] | cell viability (Caco-2 [9]; 100 nM) [%] | cell viability (Caco-2 [9]; 1000 nM) [%] | cell viability (Caco-2 [9]; 10000 nM) [%] | cell viability (Vero E6 [10]; 1 nM) [%] | cell viability (Vero E6 [10]; 10 nM) [%] | cell viability (Vero E6 [10]; 100 nM) [%] | cell viability (Vero E6 [10]; 1000 nM) [%] | cell viability (Vero E6 [10]; 10000 nM) [%] | drug sensitivity score (U2OS [11]) | drug sensitivity score (Calu-3 [12]) | drug sensitivity score (HepG2 [13]) | drug sensitivity score (Caco-2 [14]) | drug sensitivity score (Vero E6 [15])
CN(C)CC/C=C1\c2ccccc2CSc2ccccc21 [dosulepin] | > 10 | > 10 | > 10 | > 10 | > 10 | 90.7 | 97.5 | 96.4 | 101 | 96.6 | 90.7 | 104 | 101 | 89.3 | 87 | 111 | 93.5 | 94.1 | 92.6 | 79.9 | 94.1 | 108 | 100 | 117 | 107 | 93.4 | 97.3 | 104 | 96.5 | 92.7 | 0 | 0.6 | 0.9 | 0 | 0
NC(N)=Nc1nc(CSCCN/C=N/S(=O)(=O)c2ccc(Br)cc2)cs1 [ebrotidine] | > 10 | > 10 | > 10 | > 10 | > 10 | 100 | 103 | 98.6 | 106 | 98.9 | 96 | 101 | 94.8 | 101 | 93.3 | 98.2 | 97.6 | 112 | 93.4 | 86.5 | 97.8 | 102 | 95 | 99.5 | 99.9 | 88.7 | 91.8 | 97.7 | 90.6 | 105 | 0 | 0 | 0.5 | 0 | 0
CCc1cn([C@H]2C[C@H](O)[C@@H](CO)O2)c(=O)[nH]c1=O [edoxudine] | > 10 | > 10 | > 10 | > 10 | > 10 | 102 | 101 | 98.8 | 98.8 | 95.3 | 102 | 95.6 | 101 | 97 | 99.1 | 93.8 | 88.3 | 98.6 | 87.4 | 85.8 | 89.6 | 93.6 | 99.9 | 88.2 | 99.5 | 102 | 101 | 98 | 96 | 92.4 | 0 | 0 | 0 | 0 | 0
COc1ccc(CN(C(=O)[C@@H](N)Cc2c(C)cc(C(N)=O)cc2C)[C@@H](C)c2ncc(-c3ccccc3)[nH]2)cc1C(=O)O [eluxadoline] | > 10 | > 10 | > 10 | > 10 | > 10 | 91.5 | 98.3 | 96.1 | 100 | 98 | 96.6 | 105 | 95.1 | 118 | 101 | 99.6 | 95.4 | 97.1 | 99.9 | 105 | 94.1 | 98.2 | 97.6 | 98.5 | 113 | 104 | 101 | 94.5 | 98.2 | 103 | 0 | 0 | 0 | 0 | 0
CCCn1c(=O)[nH]c(=O)c2nc[nH]c21 [enprofylline] | > 10 | > 10 | > 10 | > 10 | > 10 | 104 | 99.1 | 98.9 | 97.6 | 104 | 105 | 96.9 | 95.6 | 108 | 109 | 97.4 | 110 | 100 | 95.9 | 88.2 | 104 | 100 | 99.5 | 104 | 95.5 | 97.6 | 98.3 | 91.1 | 94.7 | 94.5 | 0 | 0 | 0.2 | 0 | 0
CCOC(=O)[C@@H](C)Oc1ccc(Oc2nc3ccc(Cl)cc3o2)cc1 [fenoxaprop-p-ethyl] | > 10 | > 10 | > 10 | > 10 | > 10 | 101 | 97.9 | 97.3 | 101 | 99.8 | 105 | 99 | 113 | 110 | 112 | 97.9 | 102 | 103 | 101 | 108 | 102 | 100 | 103 | 101 | 97.2 | 96.8 | 92.2 | 93.8 | 101 | 115 | 0 | 0 | 0 | 0 | 0
CS(=O)(=O)c1ccc([C@@H](O)[C@@H](CF)NC(=O)C(Cl)Cl)cc1 [florfenicol] | > 10 | > 10 | 2.11 | > 10 | > 10 | 99.9 | 96.2 | 99.1 | 98.3 | 99.5 | 93.7 | 90.8 | 86.2 | 103 | 98.8 | 107 | 91 | 115 | 93.1 | 48 | 109 | 99.9 | 107 | 97.1 | 96 | 100 | 104 | 95.9 | 104 | 95.2 | 0 | 0 | 3.9 | 0 | 0
Nc1nc(F)nc2c1ncn2[C@@H]1O[C@H](CO)[C@@H](O)[C@@H]1O [fludarabine] | > 10 | > 10 | > 10 | > 10 | > 10 | 98.8 | 102 | 98.6 | 102 | 103 | 111 | 88.9 | 95.2 | 87.6 | 87.5 | 103 | 95.6 | 95.2 | 95.6 | 79.4 | 94.1 | 104 | 102 | 99.9 | 102 | 93.9 | 95.2 | 92.8 | 99.4 | 101 | 0 | 0.7 | 1.1 | 0 | 0
C[C@]12CCC(=O)C(O)=C1CC[C@@H]1[C@@H]2CC[C@]2(C)C(=O)CC[C@@H]12 [formestane] | > 10 | > 10 | > 10 | > 10 | > 10 | 102 | 98.2 | 102 | 95.3 | 105 | 98.7 | 96.1 | 91.4 | 93.8 | 93.3 | 117 | 111 | 108 | 112 | 98.6 | 114 | 96.9 | 95 | 105 | 117 | 97.8 | 92.4 | 86.7 | 103 | 104 | 0 | 0 | 0 | 0 | 0
C[C@]12CC[C@@H]3c4ccc(O)cc4C[C@@H](CCCCCCCCC[S+]([O-])CCCC(F)(F)C(F)(F)F)[C@H]3[C@@H]1CC[C@@H]2O (stereo not given in full) [fulvestrant] | > 10 | > 10 | > 10 | > 10 | > 10 | 105 | 110 | 102 | 103 | 88.7 | 96.7 | 114 | 104 | 90.2 | 92.7 | 100 | 102 | 96.8 | 98 | 86.7 | 104 | 107 | 102 | 110 | 85.4 | 100 | 102 | 100 | 96.9 | 99.6 | 0 | 0 | 0.3 | 0.1 | 0
CCC(C/C=C/c1ccccc1)(c1ccccc1)N(C)CC1CC1 (stereo not given) [igmesine] | > 10 | > 10 | > 10 | > 10 | > 10 | 94.7 | 99 | 100 | 101 | 102 | 99 | 104 | 96.8 | 102 | 97.8 | 102 | 105 | 101 | 102 | 96.8 | 95.4 | 97 | 95.2 | 102 | 103 | 98.8 | 97.7 | 94.2 | 98.1 | 107 | 0 | 0 | 0 | 0 | 0
O=C(CCCCC(=O)Nc1c(I)cc(I)c(C(=O)O)c1I)Nc1c(I)cc(I)c(C(=O)O)c1I [iodipamide] | > 10 | > 10 | > 10 | > 10 | > 10 | 96.2 | 103 | 97.7 | 95.1 | 97.9 | 98 | 104 | 93.6 | 101 | 101 | 96 | 93.3 | 97.6 | 101 | 103 | 106 | 106 | 97.1 | 95.3 | 102 | 102 | 99.2 | 101 | 98.6 | 103 | 0 | 0 | 0 | 0 | 0
CC(=O)N(CC(O)CO)c1c(I)c(C(=O)NCCO)c(I)c(C(=O)NCC(O)CO)c1I (stereo not given) [ioxilan] | > 10 | > 10 | > 10 | > 10 | > 10 | 97.1 | 97.1 | 101 | 92.8 | 102 | 105 | 96.9 | 99.7 | 101 | 88.9 | 105 | 101 | 86 | 109 | 90.8 | 103 | 91.6 | 93.6 | 90.5 | 90.6 | 113 | 103 | 93 | 106 | 101 | 0 | 0 | 0 | 0 | 0
